“And” between values parts separate entries of the source, which are not always exact repeats. Equal values may be shown once.

The target in one data set is T1, PXR/NCOA1 (Homo sapiens, UniProt O75469).
T1 construct: PXR-LBD (residues 108–434); expressed in transfected cells; host or cells: HepG2
T1 sequence (O75469 108-434): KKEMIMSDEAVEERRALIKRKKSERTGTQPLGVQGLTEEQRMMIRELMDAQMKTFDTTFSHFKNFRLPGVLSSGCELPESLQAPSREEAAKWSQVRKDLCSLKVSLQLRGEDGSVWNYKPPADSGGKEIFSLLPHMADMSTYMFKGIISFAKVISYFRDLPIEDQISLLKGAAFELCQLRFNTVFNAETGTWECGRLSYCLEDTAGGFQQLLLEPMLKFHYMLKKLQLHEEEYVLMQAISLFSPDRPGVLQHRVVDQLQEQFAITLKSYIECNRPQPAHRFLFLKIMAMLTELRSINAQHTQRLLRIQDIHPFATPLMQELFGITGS
The data set is described as follows: Mammalian two-hybrid PXR/coactivator NCOA1 recruitment, HepG2. It is filed as cell-based. Set-up: key: firefly/Metridia luciferase activity ratio (normalized). The procedure:
The GAL4-dependent pGL4-G5, harboring a pentamer of GAL4 binding sites in front of the E1b promoter was described before.
Transient batch transfection of HepG2 cells was done as described above. […] All transfections included 0.01 µg pMetLuc2control per well for normalization of firefly luciferase reporter activities. After overnight incubation with the transfection mixtures, cells were treated with chemicals in a volume of 100 µl of cell culture medium. […] Firefly luciferase activity was measured in 10 µl of cell lysates, and Metridia luciferase activity was analyzed in 10 µl of medium supernatant, both as described before. Results were normalized by dividing firefly luciferase activity by Metridia luciferase activity measured from the same well. Measurements of samples were repeated several times (n ≥ 3).

Data set [1] relates to humanized PXR-CAR-CYP3A4/3A7 mice. Briefly: Glucose homeostasis: IPGTT, IPITT, glycemia, insulin (HFD study). It is filed as in vivo, mouse. Also noted: insulinemia: unit not given here. How it is done: Intraperitoneal glucose tolerance test (IPGTT) and Intraperitoneal Insulin Tolerance Test (IPITT) assays were performed one week before the end of the HFD study. For IPGTT, mice fasted for 18 h were intraperitoneally injected with 20% D-glucose solution (2 g/kg BW). Blood was sampled before the injection and 15, 30, 60, and 120 min after. For the IPITT assay, mice fasted for 4 h were administered with 0.75 IU insulin/kg BW. Blood was sampled before the injection and 15, 30, 45, 60, and 90 min after.

The test system is the same in data set [2]. The data set is described as follows: Bile acid analysis in plasma, liver and stool (HFD study). It is filed as in vivo, mouse. The procedure:
Materials and reagents and sample preparation have been described in our last paper[63] (see Supplementary, Chapter 12). Concentrations of bile acids in plasma, bile, and feces were determined using the UHPLC-MS method. The bile acids separation was conducted on the ACQUITY UPLC I-Class System (Waters, Milford, MA, USA) using a Triart C18 column (50 mm × 2.1 mm ID, 1.9 µm) from YMC, Japan. The column was maintained at 45 °C and was safeguarded by a disposable CrudCatcher in-line filter (Phenomenex, Torrance, CA, USA). The mobile phase flowed at a rate of 0.35 mL/min and consisted of solvent A (0.5 mmol/L ammonium acetate, 0.001% v/v acetic acid in water) and solvent B (0.5 mmol/L ammonium acetate, 0.001% v/v acetic acid in a 3:1 v/v mixture of methanol and acetonitrile). The gradient program followed this sequence. […] This was succeeded by an isocratic washout with 95% (v/v) solvent B from 9.0 to 10.5 min, followed by equilibration with 40% (v/v) solvent B from 10.5 to 12 min. 2 μL of sample were injected into column. Column effluent was monitored with Xevo TQ-XS triple quadrupole detector operated in positive electrospray mode. Further details can be found in the publication by Uher et al.[72].
The processing of the UHPLC-MS data was performed using TargetLynx software (Waters, Milford, MA, USA). The ratio of an analyte’s peak area and the internal standard was evaluated against a calibration curve, and the concentration for each bile acid was calculated. For further data analysis, the concentrations of individual BAs were summed to calculate the concentration of conjugated, unconjugated, 12-OH, non-12-OH, and total bile acids.
To cover a wide concentration range of bile acids, two sets of plasma aliquots were prepared. The first set, with a volume of 10 μL, was diluted tenfold with MilliQ water. The second set, with a volume of 100 μL, was used without dilution, and the subsequent procedure remained identical for both sets. […]

Another data set concerns the target LXRα (Homo sapiens, UniProt Q13133). Briefly: Luciferase reporter gene assay LXRα, HepG2.

Sequence of LXRα (Q13133 209-447 limits assumed): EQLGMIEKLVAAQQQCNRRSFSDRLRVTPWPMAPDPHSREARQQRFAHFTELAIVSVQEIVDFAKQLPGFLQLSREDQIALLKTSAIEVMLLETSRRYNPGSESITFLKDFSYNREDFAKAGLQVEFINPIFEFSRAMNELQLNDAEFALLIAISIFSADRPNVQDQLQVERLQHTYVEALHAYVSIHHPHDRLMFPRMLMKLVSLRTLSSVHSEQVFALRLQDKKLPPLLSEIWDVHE
Text for LXRα: Gal4-LBD constructs of tested nuclear receptors have been used together with pGL4.31[luc2P/GAL4UAS/Hygro] luciferase reporter construct and pRL-TK Renilla expression vector (both from Promega, Hercules, USA) in HepG2 cells transfected with Lipofectamine 2000 or 3000 reagents. For GRα and FXR receptors, full-length expression vectors have been used with pGRE-luc or pFXRE-luc luciferase constructs. For the aryl hydrocarbon receptor (AhR), p1A1-luc construct was used with only pRL-TK vector for transfection normalization. A dual reporter assay (Promega, Hercules, USA) was used to analyze both firefly and Renilla luciferase activities.
Gal4-LBD constructs of tested nuclear receptors have been used together with pGL5-luc luciferase reporter construct and pRL-TK Renilla expression vector in HepG2 cells transfected with Lipofectamine 2000 or 3000 reagents. For GRα and FXR receptors, full-length expression vectors have been used with pGRE-luc or pFXRE-luc luciferase constructs. For the aryl hydrocarbon receptor (AhR), p1A1-luc construct was used with only pRL-TK vector for transfection normalization. […] Bars represent means±S.D. (n=3).

Take `NC(=O)c1cc(Cn2cc(-c3c(-c4ccc(Cl)cc4)nc4cc(F)ccn34)nn2)ccc1Cl` [MI-883, 2-chloro-5-((4-(2-(4-chlorophenyl)-7-fluoroimidazo[1,2-a]pyridin-3-yl)-1H-1,2,3-triazol-1-yl)methyl)benzamide]: the “PXR/NCOA1 two-hybrid activity, replicates” value on PXR/NCOA1 (MI-883 5 μM) is 0.25 and 0.27 and 0.49 and 0.53 and 0.45. At PXR/NCOA1 (RIF + MI-883 5μM), the “PXR/NCOA1 two-hybrid activity, replicates” value is 3.5 and 5.72 and 7.6 and 8.87 and 7.06. Further, the “PXR/NCOA1 two-hybrid activity, replicates” value at PXR/NCOA1 (RIF + MI-883 10μM) was 2.55 and 2.34 and 3.32 and 3.46. Besides, at PXR/NCOA1 (single agent: RIF (10 µM), MI-883 10μM, control ~1), the “PXR/NCOA1 two-hybrid activity, replicates” value is 0.21 and 0.23 and 0.57 and 0.43 and 0.38. In data set [1] (HFD study), the insulinemia entry is on record as “no effect” and the “postprandial glucose concentrations in IPGTT or IPITT” value is recorded as “did not significantly decrease”. Also, the plasma glucose levels entry in data set [1] (both studies) is given as “no effect”. Besides, in data set [2], the “total BA content in the stool after 24 h” value is “significant increase”; the “total bile acid concentration in plasma and livers” value is “not affected”; the “βMCA and CDCA in the stool” value is on record as “significant (P < 0.05) increase”. In addition, on LXRα, the “NRs assays: GAL4-LXR+RXR (relative to ctrl, replicates)” value was 0.88 and 1.89 and 2.24.

These data come from article PMC11802874, “The hypolipidemic effect of MI-883, the combined CAR agonist/ PXR antagonist, in diet-induced hypercholesterolemia model” (Nature Communications, 2025).
